Assays:
[1] = test system: blood coagulum; assay: Fibrinolytic activity, Fearnley method (lysis of blood coagulum in toto); assay type: in vivo; conditions: Oryctolagus cuniculus, ip, 0.5 h, percent decrease of coagulum weight after 30 minutes at 37° C.; 25 mg/kg intraperitoneal, rabbits; read-out: fibrinolytic activity (FL)
Procedure: Determination of the fibrinolytic activity
The determination of the fibrinolytic activity was made following the Fearnley method for the lysis of the blood coagulum in toto.
0.2 ml of blood were withdrawn from the marginal vein of the ear of rabbits treated in the same way as the previously described tests, before and after an intraperitoneal injection of the compounds under test at a dose level of 25 mg/kg for each compound.
The blood samples were placed in test tubes containing 1.7 ml of phosphate buffer at pH 7.4 and 0.1 ml of thrombin (Roche Topostasin ® per os) at 50 units NIH/ml, and maintained in an ice bath. The test tubes were maintained at said temperature for 30 minutes and thereupon were transferred to a temperature controlled water bath at 37° C.
The fibrinolytic activity was determined as a percent decrease of the coagulum weight, measured after incubation for 30 minutes at 37° C.
(§1) In tables I and II are further indicated for each compound the method of preparation; the melting point PF in °C; the platelet antiaggregant activity (AAP) expressed in terms of DI50 in mg/kg, referred to ADP and thrombin respectively; the antithrombin activity (AT) in %; the anticoagulant activity (AC) in %; the fibrinolytic activity (FL) in %; the acute toxicity (LD50) in mice, intraperitoneally, in mg/kg, as previously defined.

[2] = test system: CaCl2-induced plasma coagulation; assay: Anticoagulant activity on PRP, Hartert's thromboelastograph; assay type: in vivo, New Zealand rabbits; conditions: Oryctolagus cuniculus, ip, percent increase of total time for coagulum formation (r+k) vs before treatment; 25 mg/kg intraperitoneal, rabbits; read-out: anticoagulant activity (AC)
Procedure: Determination of the anticoagulant activity
The anticoagulant activity was also assessed on PRP of animals treated as described in the preceding methods, by using again Hartert's thromboelastograph method.
The plasma coagulation was induced by adding to 0.25 ml PRP a 1.29% solution of CaCl2.
The anticoagulant effect was determined as a percent increase of the total time for the coagulum formation (the index r+k can be obtained from the thromboelastograph diagram) in a plasma after treatment, referred to the same index obtained before the treatment (control). Again the dose level was 25 mg/kg for each compound under examination, intraperitoneally.
as §1

[3] = test system: platelet aggregation induced by ADP; assay: Platelet aggregation inhibitory activity in vivo (Born aggregometer), ADP-induced; parameters: species or system New Zealand rabbits; conditions: Oryctolagus cuniculus, Platelet, ip, dose for 50% inhibition of ADP-induced aggregation curve; rabbits, intraperitoneal, blood 2, 4 and 6 hours after injection; read-out: platelet antiaggregant activity (AAP), DI50, ADP
Procedure: (§2) Determination of the platelet aggregation inhibitory activity in vivo
(§3) The activity of the above described compounds as platelet antiaggregant was tested in vivo on rabbits, by the Born aggregometer. The inhibition of the aggregation curve induced by ADP and thrombin was assessed with different drug concentrations according to the platelet reactivity. New Zealand rabbits which had been held fasting for 12 hours with water ad libitum, were anaesthetized with Nembutal in a dose of 35 mg/kg intramuscolarly. The blood was withdrawn from the carotidal arthery, before (control) and 2, 4, and 6 hours after the intraperitoneal injection of the compounds under examination (at the dose indicated below). The blood samples were taken up in a 3.8% aqueous solution of sodium citrate in a ratio 10:1 and thereupon centrifuged at 1500 r.p.m. for 10 minutes, for obtaining a PRP (platelet rich plasma). A portion of such a plasma was thereupon centrifuged at 8000 r.p.m. for 10 minutes, for obtaining a PPP (platelet lean plasma) which was used for zeroing the measuring apparatus.
(§4) From the results of said experiments, there was determined the dose of each product in mg/kg body weight able to induce a 50% inhibition of the aggregation curve (DI50) after treatment, referred to the curve obtained by the same control plasma before treatment.
as §1

[4] = test system: thrombin-induced coagulation of platelet rich plasma; assay: Antithrombin activity on PRP, Hartert's thromboelastograph; assay type: in vivo, New Zealand rabbits; conditions: Oryctolagus cuniculus, Platelet, ip, percent decrease of index ma/[r+k] vs before treatment; 20 mg/kg intraperitoneal, rabbits
Procedure: Determination of the antithrombin activity
The antithrombin activity on the PRP (platelet rich plasma) obtained following the above described method was assessed by Hartert's thromboelastograph (Hellige model). The coagulation was induced by adding to 0.25 ml of plasma 0.06 ml of a thrombin solution (Roche Topostasin® per os) at 60 units*, pH 7.4**. The antithrombin activity was assessed in terms of a percent decrease of the index (ma/[r+k]) which was calculated from the thromboelastograph diagram, wherein r is the reaction time, k is the speed of the coagulum formation and ma is the maximum spread of the tong, after an intraperitoneal treatment with a dose of 20 mg/kg of each compound under examination, referred to the same index obtained before the treatment (control).
as §1

[5] = Acute toxicity, intraperitoneal; conditions: mouse, in vivo, ip, male Swiss mice, intraperitoneal, 7 days observation; preliminary, by graphic interpolation; read-out: acute toxicity (LD50 / DL50)
Procedure: The acute toxicity limit was determined intraperitoneally on male Swiss mice, weighing 20±2 g, held fasting for 18 hours with water ad libitum.
The animals were maintained under observation for 7 days of treatment, by examining the general symptomatology and noting the death sequency. The preliminary DL50 in mg/kg body weight was calculated by graphic interpolation of the results as obtained.
as §1

[6] = test system: platelet aggregation induced by thrombin; assay: Platelet aggregation inhibitory activity in vivo (Born aggregometer), thrombin-induced; parameters: species or system New Zealand rabbits; conditions: Oryctolagus cuniculus, Platelet, ip, dose for 50% inhibition of thrombin-induced aggregation curve; rabbits, intraperitoneal, blood 2, 4 and 6 hours after injection; read-out: platelet antiaggregant activity (AAP), DI50, Thrombin
Procedure: as §2, §3, §4, §1

COc1cc(C(=O)NCc2cccnc2)cc(C(=O)NCc2cccnc2)c1O [Example 33] gave a fibrinolytic activity (percent decrease of coagulum weight) at 25 mg/kg [1] of 15.5%, a change in vivo at 25 mg/kg [2] of 11.2% and an ED50 [3] of 58.4 mg/kg. For the same compound, the inhibition in vivo at 20 mg/kg [4] was 20.3%, the LD50 at 168 h [5] was 570 mg/kg and the ED50 [6] was 38.9 mg/kg.
Compound C=CCOc1c(Cl)cc(C(=O)NCc2ccncc2)cc1C(=O)NCc1ccncc1 [Example 67] has a fibrinolytic activity (percent decrease of coagulum weight) at 25 mg/kg [1] of 27.1%, a change in vivo at 25 mg/kg [2] of 14.6% and an ED50 [3] of 55.6 mg/kg. For the same compound, the inhibition in vivo at 20 mg/kg [4] was 39.8%, the LD50 at 168 h [5] was 187 mg/kg and the ED50 [6] was 34.2 mg/kg.
For CCCN(Cc1cccnc1)C(=O)c1ccc(OC)c(C(=O)N(CCC)Cc2cccnc2)c1 [Example 41], the fibrinolytic activity (percent decrease of coagulum weight) at 25 mg/kg [1] was 22.3%, the change in vivo at 25 mg/kg [2] was 15.8% and the ED50 [3] was 65.1 mg/kg. For the same compound, the inhibition in vivo at 20 mg/kg [4] was 26.3%, the LD50 at 168 h [5] was 620 mg/kg and the ED50 [6] was 46.5 mg/kg.
In the case of C=C(C)Oc1c(Cl)cc(C(=O)N(C)Cc2ccncc2)cc1C(=O)N(C)Cc1ccncc1 [Example 68], the fibrinolytic activity (percent decrease of coagulum weight) at 25 mg/kg [1] is reported as 30%, the change in vivo at 25 mg/kg [2] is reported as 15.5% and the ED50 [3] is reported as 47.5 mg/kg. For the same compound, the inhibition in vivo at 20 mg/kg [4] was 35.2%, the LD50 at 168 h [5] was 255 mg/kg and the ED50 [6] was 30 mg/kg.
Compound COc1c(Cl)cc(C(=O)NCc2cccnc2)cc1C(=O)NCc1cccnc1 [Example 23] has a fibrinolytic activity (percent decrease of coagulum weight) at 25 mg/kg [1] of 16.8%, a change in vivo at 25 mg/kg [2] of 12.2% and an ED50 [3] of 63.4 mg/kg. For the same compound, the inhibition in vivo at 20 mg/kg [4] was 22.5%, the LD50 at 168 h [5] was 425 mg/kg and the ED50 [6] was 46.9 mg/kg.
COc1ccc(C(=O)NCc2ccncc2)cc1C(=O)NCc1ccncc1 [Example 58] gave a fibrinolytic activity (percent decrease of coagulum weight) at 25 mg/kg [1] of 31.7%, a change in vivo at 25 mg/kg [2] of 18.2% and an ED50 [3] of 28.1 mg/kg. The inhibition in vivo at 20 mg/kg [4] was 37%, the LD50 at 168 h [5] was 704 mg/kg and the ED50 [6] was 21.3 mg/kg.
In the case of COc1cc(C(=O)NCc2cccnc2)cc(C(=O)NCc2cccnc2)c1OC1CCC1 [Example 19], the fibrinolytic activity (percent decrease of coagulum weight) at 25 mg/kg [1] is reported as 28.1%, the change in vivo at 25 mg/kg [2] is reported as 15.6% and the ED50 [3] is reported as 34.7 mg/kg. For the same compound, the inhibition in vivo at 20 mg/kg [4] was 32.8%, the LD50 at 168 h [5] was 254 mg/kg and the ED50 [6] was 25.2 mg/kg.
CC=COc1c(Cl)cc(C(=O)N(CCCCC)Cc2cccnc2)cc1C(=O)N(CCCCC)Cc1cccnc1 [Example 51] showed a fibrinolytic activity (percent decrease of coagulum weight) at 25 mg/kg [1] of 26.1%, a change in vivo at 25 mg/kg [2] of 15.7% and an ED50 [3] of 51.6 mg/kg. The inhibition in vivo at 20 mg/kg [4] was 28.2%, the LD50 at 168 h [5] was 205 mg/kg and the ED50 [6] was 32.4 mg/kg.
CCOc1ccc(C(=O)N(CCCC(C)C)Cc2cccnc2)cc1C(=O)N(CCCC(C)C)Cc1cccnc1 [Example 46] showed a fibrinolytic activity (percent decrease of coagulum weight) at 25 mg/kg [1] of 29.1%, a change in vivo at 25 mg/kg [2] of 15.5% and an ED50 [3] of 34.3 mg/kg. For the same compound, the inhibition in vivo at 20 mg/kg [4] was 32.7%, the LD50 at 168 h [5] was 451 mg/kg and the ED50 [6] was 24.7 mg/kg.
For C=CCOc1ccc(C(=O)NCc2cccnc2)cc1C(=O)NCc1cccnc1 [Example 7], the fibrinolytic activity (percent decrease of coagulum weight) at 25 mg/kg [1] was 44.7%, the change in vivo at 25 mg/kg [2] was 14.5% and the ED50 [3] was 36.3 mg/kg. For the same compound, the inhibition in vivo at 20 mg/kg [4] was 51.5%, the LD50 at 168 h [5] was 374 mg/kg and the ED50 [6] was 19.2 mg/kg.
CC(C)(C)Oc1ccc(C(=O)NCc2cccnc2)cc1C(=O)NCc1cccnc1 [Example 16] showed a fibrinolytic activity (percent decrease of coagulum weight) at 25 mg/kg [1] of 21.9%, a change in vivo at 25 mg/kg [2] of 13.6% and an ED50 [3] of 45.2 mg/kg. The inhibition in vivo at 20 mg/kg [4] was 27.6%, the LD50 at 168 h [5] was 325 mg/kg and the ED50 [6] was 30.3 mg/kg.
For COc1cc(C(=O)NCc2cccnc2)cc(C(=O)NCc2cccnc2)c1OC1CC1 [Example 18], the fibrinolytic activity (percent decrease of coagulum weight) at 25 mg/kg [1] was 28.6%, the change in vivo at 25 mg/kg [2] was 20.1% and the ED50 [3] was 29.4 mg/kg. The inhibition in vivo at 20 mg/kg [4] was 33.4%, the LD50 at 168 h [5] was 228 mg/kg and the ED50 [6] was 22 mg/kg.
Work on COc1c(Cl)cc(C(=O)N(Cc2ccncc2)C(C)C)cc1C(=O)N(Cc1ccncc1)C(C)C [Example 71] yielded a fibrinolytic activity (percent decrease of coagulum weight) at 25 mg/kg [1] of 47.7%, a change in vivo at 25 mg/kg [2] of 25.6% and an ED50 [3] of 28.1 mg/kg. For the same compound, the inhibition in vivo at 20 mg/kg [4] was 53.9%, the LD50 at 168 h [5] was 384 mg/kg and the ED50 [6] was 19.6 mg/kg.

— patent US4294833A, “Substituted 4-hydroxy-isophthalic acid picolylamides having a pharmaceutical activity in thromboembolic disorders” (Societa Italo-Britannica, priority 1977, dated 1981)
